As usually defined, the IC50 is the concentration at which inhibition is half-maximal.

The experiment concerns the target T1, Neuropeptides B/W receptor type 1 (Homo sapiens, UniProt P48145).
T1 sequence (P48145 whole entry): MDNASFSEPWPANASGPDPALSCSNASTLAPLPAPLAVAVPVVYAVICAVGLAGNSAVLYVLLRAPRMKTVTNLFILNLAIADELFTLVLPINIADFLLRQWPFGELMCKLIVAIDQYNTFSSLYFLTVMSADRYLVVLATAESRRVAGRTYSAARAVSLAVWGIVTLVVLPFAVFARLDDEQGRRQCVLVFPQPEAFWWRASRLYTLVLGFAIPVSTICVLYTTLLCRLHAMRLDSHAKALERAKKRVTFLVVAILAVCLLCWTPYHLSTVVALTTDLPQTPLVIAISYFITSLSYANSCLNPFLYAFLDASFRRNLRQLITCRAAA
The experiment can be described thus: Antagonist activity at human NPBWR1 assessed as inhibition of agonist-induced cAMP accumulation by cAMP assay. The experiment is classed as functional. Background: cAMP levels reflect the balance of adenylyl cyclase and phosphodiesterase activity.
Take `O=[N+]([O-])c1ccc2[nH]c(-c3cccc(N4CCCC4)c3)nc2c1`: the IC50 amounted to 6010 nM.

For the molecule `O=[N+]([O-])c1ccc2nc(-c3ccc(Cl)cc3Cl)[nH]c2c1`, the IC50 was 2880 nM.

Consider `O=[N+]([O-])c1ccc2[nH]c(-c3c(Cl)cc(Cl)cc3I)nc2c1`, for which the IC50 turned out to be 205 nM.

On to `O=[N+]([O-])c1ccc2[nH]c(-c3ccc(C(F)(F)F)cc3)nc2c1`, for which the half-maximal inhibitory concentration (IC50) is > 31600 nM.

As to `O=[N+]([O-])c1ccc2[nH]c(-c3ccc(N4CCCC4)cc3)nc2c1`, the IC50 is 1810 nM.

In the case of `CC(=O)c1ccc(-c2nc3cc([N+](=O)[O-])ccc3[nH]2)cc1`, the IC50 came to 9320 nM.

Consider `O=[N+]([O-])c1ccc2[nH]c(-c3cccc(Cl)c3)nc2c1`, for which the IC50 stood at 9980 nM.

`FC(F)(F)c1ccc2[nH]c(-c3ccccc3)nc2c1`: the IC50 turned out to be 1200 nM.

Consider `O=[N+]([O-])c1ccc2[nH]c(-c3ccccc3)nc2c1`, for which the 50% inhibitory concentration (IC50) came out at 10000 nM.

Regarding `Cc1cc(Cl)ccc1-c1nc2cc([N+](=O)[O-])ccc2[nH]1`, the IC50 amounted to 2490 nM.

For the molecule `FC(F)(F)c1ccc2[nH]c(-c3ccc(-c4ccoc4)cc3)nc2c1`, the IC50 was 1190 nM.

Regarding `CC(C)(C)c1ccc(-c2nc3cc([N+](=O)[O-])ccc3[nH]2)cc1`, the 50% inhibitory concentration (IC50) was found to be 3180 nM.

As to `Nc1ccc(-c2nc3cc([N+](=O)[O-])ccc3[nH]2)cc1`, the IC50 is 8480 nM.

For `Cc1ccc(-c2nc3cc([N+](=O)[O-])ccc3[nH]2)cc1C`, the IC50 amounted to 1380 nM.

As for `O=[N+]([O-])c1ccc2nc(-c3ccc(Cl)cc3)[nH]c2c1`, the IC50 stood at 2690 nM.

`NS(=O)(=O)c1ccc(-c2nc3cc([N+](=O)[O-])ccc3[nH]2)cc1`: the half-inhibitory concentration (IC50) was > 31600 nM.

`CC(=O)c1cccc(-c2nc3cc([N+](=O)[O-])ccc3[nH]2)c1`: the 50% inhibitory concentration (IC50) is > 31600 nM.

With `CCc1ccc(-c2nc3cc([N+](=O)[O-])ccc3[nH]2)cc1`, the 50% inhibitory concentration (IC50) was found to be 1020 nM.

Consider `O=[N+]([O-])c1ccc2[nH]c(-c3ccccc3N3CCCC3)nc2c1`, for which the IC50 is 6770 nM.

Consider `CC(=O)c1ccccc1-c1nc2cc([N+](=O)[O-])ccc2[nH]1`, for which the IC50 is > 31600 nM.

As to `Cn1cc(-c2ccc(-c3nc4cc(C(F)(F)F)ccc4[nH]3)cc2)cn1`, the half-inhibitory concentration (IC50) was determined as 1470 nM.

As to `O=[N+]([O-])c1ccc2nc(-c3ccc(Cl)c(Cl)c3)[nH]c2c1`, the IC50 is > 31600 nM.

For `O=[N+]([O-])c1ccc2[nH]c(-c3ccc(-c4ccccc4)cc3)nc2c1`, the IC50 stood at 4880 nM.

In the case of `Cc1cc(-c2nc3cc([N+](=O)[O-])ccc3[nH]2)ccc1Cl`, the half-inhibitory concentration (IC50) turned out to be 2290 nM.

In the case of `FC(F)(F)c1ccc2[nH]c(-c3ccc(-c4nnc[nH]4)cc3)nc2c1`, the IC50 stood at 3080 nM.

As to `O=[N+]([O-])c1ccc2[nH]c(-c3ccc(Cl)c(Br)c3)nc2c1`, the IC50 is > 31600 nM.

For the molecule `Cc1ccc(-c2nc3cc([N+](=O)[O-])ccc3[nH]2)c(C)c1`, the IC50 was determined as 1540 nM.

Take `FC(F)(F)c1ccc2[nH]c(-c3ccc(-c4c[nH]nc4C(F)(F)F)cc3)nc2c1`: the IC50 was found to be 1200 nM.

As for `Cc1ccc(-c2nc3cc([N+](=O)[O-])ccc3[nH]2)cc1`, the IC50 stood at 1500 nM.

In the case of `O=[N+]([O-])c1ccc2nc(-c3ccccc3Cl)[nH]c2c1`, the IC50 stood at 10700 nM.

In the case of `COc1ccc(-c2nc3cc([N+](=O)[O-])ccc3[nH]2)cc1`, the half-inhibitory concentration (IC50) was determined as 6080 nM.

As for `NCc1ccc(-c2ccc(-c3nc4cc(C(F)(F)F)ccc4[nH]3)cc2)cc1`, the IC50 worked out at 720 nM.

For `O=[N+]([O-])c1ccc2[nH]c(-c3ccc(Cl)cc3Br)nc2c1`, the IC50 came to 1760 nM.

Values taken from ChEMBL document CHEMBL4699486, “Fragment-based lead discovery of a novel class of small molecule antagonists of neuropeptide B/W receptor subtype 1 (GPR7)” (Bioorg Med Chem Lett, 2020).
